In patent US20230241093A1, “TARGETING ADISPSIN FOR NONALCOHOLIC STEATOHEPATITIS (NASH)- INDUCED LIVER FIBROSIS” (The Trustees of Columbia University in the City of New York, priority 2020, published 2023):

Tested on: hepatic stellate cells (HSC)
Assay: Gene expression in hepatic stellate cells after treatment with recombinant C3a
Assay type: cell-based
Settings: recombinant C3a vs control (vehicle alone), FIG. 3B
Method: FIG. 3. Adipsin/C3a effects on liver fibrosis. A. Complement C3 cleavage products as assessed by Western blot in conditioned medium from hepatocytes with or without Adipsin expression. B. Gene expression in hepatic stellate cells (HSC) after treatment with vehicle or recombinant C3a.
The effects of Adipsin/C3a on liver fibrosis was analyzed.

## recombinant C3a: recombinant complement C3 cleavage product C3a, used to treat hepatic stellate cells
  Acta2 gene expression in hepatic stellate cells: dose dependent increase
  Collal gene expression in hepatic stellate cells: dose dependent increase
